# Results: patent US8911984B2, “Tannase, gene encoding same, and process for producing same” (Amano Enzyme Inc., priority 2008, dated 2014)
# B1: purified enzyme: tannase purified from Aspergillus awamori NBRC-4033 (IFO-4033), amino acid sequence SEQ ID NO: 5 (protein, listed as Aspergillus awamorii)
# chain: MRSPAWASIAITAFAALANAGTPSTLAELCTDSIVKAALPPSEFIKGITIDSDSVTTEVVTNSSFSSEFYPSATIDYCNVTFAYSHDGIDGDQVLLEIWLPAPTNFKNRWLSTGGGGYAINSGDQSLPGGVMYGAASGMTDGGFGGFSNNADTAMLLANGTLNYETLYMFAYKAHRELSLLGKALTRNVYGMSDSDKLYAYYQGCSEGGREGWSQVQRFGDEWDGAIIGAPAFRWSFQQTQHLYSNIVEKTLDYYPPPCELDKIVNETIAACDAMDGKVDWVVARTDLCLLDFDISTIEGKPYSCAASRGTPAQNGTVSAKGIEVAKTIINGLHDSQGRRVYFSYQPTAAFDDAETQYNSTTGQWGLDIDQLGGEYIALLVDKNGTTLDSLDGITYDTLKDWMISGLQEYYSTLQTTWPDLTPFHNAGGKVIHFHGDADFSIPTAASIRYWESVRSIMYPNKDYNSSAEALNEWYRLYTVPGAGHCATNDAMPNGPFPQTNMAVMIDWVENGVVPTTLNATVLQGENEGQNQQLCAWPLRPLWTNNGTTMECVYNQRSIDSWHYDLDAVPMPVY
# Experiments:
# [1] = system: Tannase; assay: Effect of metallic ion and inhibitor on tannase activity; type: biochemical, Aspergillus awamori; details: 30° C. 30 minutes, pH 5.0; for Relative activity (%): no addition = 100%
# Method: 0.5 mL of a 50 mM citric acid buffer solution (pH 5.0) containing 1% tannic acid (Tannic acid, ACS Reagent [SIGMA]) is added with 0.5 ml of an enzyme solution, […], thereafter adding a 0.2 M acetic acid buffer solution (pH 5.0) containing 2% BSA to terminate the reaction. After terminating the reaction, the reaction solution is stood still in ice for 20 minutes and then centrifuged at 3,000 rpm for 20 minutes. The obtained supernatant is diluted 50 holds and an absorbance at a wavelength of 260 nm is measured. An analytical curve (standard curve) is formed using gallic acid and an enzyme amount that releases 1 μM of gallic acid for 1 minute is assumed to be 1 unit. […] The activity increased by addition of urea.
# [2] = system: tannase derived from Aspergillus awamori; assay: Substrate specificity of tannase (rhodanine method); type: biochemical; details: 0.17% tannic acid or 10 mM gallic acid ester, pH 5.0, 37° C., 30 minutes; tannic acid = 100%
# Method: As described below, the method of Sharma (Anal. Biochem. 279, 85-89, 2000) was modified and substrate specificity was measured.
# 125 μL of a 50 mM citric acid buffer solution (pH 5.0) containing 0.17% tannic acid or 10 mM gallic acid esters (methyl gallate, ethyl gallate, propyl gallate, and isoamyl gallate) is added with 125 μL of an enzyme solution and incubated at 37° C. for 30 minutes, followed by adding and mixing 300 μL of methanol containing 0.667% Rhodanine, and the reaction solution is stood still for 10 minutes. Next, 200 μL of 0.5 N NaOH is added and mixed and the reaction solution is stood still for 10 minutes. Subsequently, the reaction solution is diluted with 9 mL of distilled water and left for 5 minutes, and an absorbance at a wavelength of 520 nm is measured. An analytical curve (standard curve) was formed using gallic acid and an activity that releases 1 μM of gallic acid for 1 minute is assumed to be 1 unit.
# Substrate specificities to tannic acid and gallic acid esters (methyl gallate, ethyl gallate, propyl gallate, and isoamyl gallate) were measured in the above-mentioned measurement method of substrate specificity. When a dissolution activity to tannic acid was assumed to be 100%, a dissolution activity of each of the gallic acid esters was 41% for methyl gallate, 30% for ethyl gallate, 29% for propyl gallate, and 27% for isoamyl gallate.
# [3] = Isoelectric point by isoelectric electrophoresis (PhastSystem); type: physicochemical
# Method: When the isoelectric point of the present enzyme was measured by isoelectric electrophoresis using PhastSystem (GE Healthcare Bio-Sciences Ltd.), it was 6.4.
# [4] = Optimum reaction temperature of tannase; type: biochemical; details: 50 mM citric acid buffer solution (pH 5.0), 30-80° C. tested
# Method: (§1) 0.5 mL of a 50 mM citric acid buffer solution (pH 5.0) containing 1% tannic acid (Tannic acid, ACS Reagent [SIGMA]) is added with 0.5 ml of an enzyme solution, and incubated at 37° C. for 30 minutes, thereafter adding a 0.2 M acetic acid buffer solution (pH 5.0) containing 2% BSA to terminate the reaction. After terminating the reaction, the reaction solution is stood still in ice for 20 minutes and then centrifuged at 3,000 rpm for 20 minutes. The obtained supernatant is diluted 50 holds and an absorbance at a wavelength of 260 nm is measured. An analytical curve (standard curve) is formed using gallic acid and an enzyme amount that releases 1 μM of gallic acid for 1 minute is assumed to be 1 unit.
# According to the above-mentioned measurement method of a tannase activity, the purified enzyme was reacted at reaction temperatures of 30° C., 35° C., 40° C., 45° C., 50° C., 55° C., 60° C., 65° C., 70° C., 75° C. and 80° C. Each measurement result was shown as a relative activity, assuming a value at a temperature showing the maximum activity as 100% (FIG. 1). The optimum reaction temperature was around 70° C.
# [5] = Thermostability of purified tannase (residual activity after thermal treatment); type: biochemical; details: 30 minutes, 50 mM citric acid buffer solution (pH 5.0)
# Method: as §1
# The purified enzyme was thermally treated for 30 minutes at each temperature of 30° C., 35° C., 40° C., 45° C., 50° C., 55° C., 60° C., 65° C., 70° C., 75° C. and 80° C. in a 50 mM citric acid buffer solution (pH 5.0), and a residual activity was then measured in the above-mentioned measurement method of a tannase activity. Each measurement result was shown as a residual activity, assuming a thermally untreated activity as 100% (FIG. 3). The purified enzyme had 90% or more of a residual activity in the thermal treatment at 65° C. for 30 minutes and was stable until 65° C.
# [6] = Optimum reaction pH of tannase; type: biochemical; details: 37° C., 30 minutes, 1% tannic acid; citric acid buffer pH 3-6, phosphate buffer pH 6-8
# Method: as §1
# The optimum reaction pH was measured under the reaction condition of 37° C. for 30 minutes in each buffer solution (citric acid buffer solutions at pH 3.0, 3.5, 4.0, 4.5, 5.0, 5.5 and 6.0, and phosphate buffer solutions at pH 6.0, 6.5, 7.0, 7.5 and 8.0) using 1% tannic acid for a substrate. Each measurement result was shown as a relative activity, assuming a value of a pH showing the maximum activity as 100% (FIG. 2). The optimum reaction pH was about 5.5.
# [7] = pH stability of purified tannase; type: biochemical; details: 30° C., 30 minutes
# Method: as §1
# The purified enzyme was treated in each buffer solution (citric acid buffer solutions at pH 3.0, 3.5, 4.0, 4.5, 5.0, 5.5 and 6.0, and phosphate buffer solutions at pH 6.0, 6.5, 7.0, 7.5 and 8.0) at 30° C. for 30 minutes and diluted 5 holds with a 0.2 M acetic acid buffer solution (pH 5.0), and an activity was measured in the above-mentioned measurement method of a tannase activity. Each measurement result was shown as a relative activity, assuming a value of a pH showing the maximum activity as 100% (FIG. 4). The stable pH range was from 3 to 8.
Molecule,Relative activity (%) ([1]; 20 mM metallic ion or EDTA),dissolution activity relative to tannic acid [2] [%],also measured
[Ca+2] [Ca^2+],109,,
"NC(N)=O [Urea, urea]",,,effect on tannase activity (in words) [1]: increased; Relative activity (%) ([1]; urea 0.4 M): 108%; Relative activity (%) ([1]; urea 0.8 M): 117%; Relative activity (%) ([1]; urea 2 M): 150%; Relative activity (%) ([1]; urea 4 M): 197%
[Fe+3] [Fe^3+],91,,
[Zn+2] [Zn^2+],82,,
O=C(O)CN(CCN(CC(=O)O)CC(=O)O)CC(=O)O [EDTA],101,,
[Mn+2] [Mn^2+],98,,
COC(=O)c1cc(O)c(O)c(O)c1 [methyl gallate],,41,
O=C(OC[C@H]1O[C@@H](OC(=O)c2cc(O)c(O)c(OC(=O)c3cc(O)c(O)c(O)c3)c2)[C@H](OC(=O)c2cc(O)c(O)c(OC(=O)c3cc(O)c(O)c(O)c3)c2)[C@@H](OC(=O)c2cc(O)c(O)c(OC(=O)c3cc(O)c(O)c(O)c3)c2)[C@@H]1OC(=O)c1cc(O)c(O)c(OC(=O)c2cc(O)c(O)c(O)c2)c1)c1cc(O)c(O)c(OC(=O)c2cc(O)c(O)c(O)c2)c1 [tannic acid],,100,
[Mg+2] [Mg^2+],118,,
[Cu+2] [Cu^2+],72,,
CCOC(=O)c1cc(O)c(O)c(O)c1 [ethyl gallate],,30,
CCCOC(=O)c1cc(O)c(O)c(O)c1 [propyl gallate],,29,
CC(C)CCOC(=O)c1cc(O)c(O)c(O)c1 [isoamyl gallate],,27,
B1,,,"isoelectric point [3]: 6.4; optimum reaction temperature [4]: around 70 °C; residual activity after thermal treatment ([5]; 65° C., untreated = 100%): ≥ 90%; temperature up to which enzyme is stable [5]: ≤ 65 °C; optimum reaction pH [6]: about 5.5; activity with respect to the maximum activity after treatment within pH 3 to 8 [7]: ≥ 80%"
